{"source": "patent US20040192554A1", "about": "“Technique for effectively treating an agricultural product with a 1-substituted-cyclopropene” (priority 2003, published 2004)", "key": {"[1]": {"system": "peach (variety \"Yuzora\") fruit", "assay": "Quality deterioration of peach (Yuzora) fruit after storage, Example 7", "assay_type": "in vivo", "conditions": "1 ppm, after storage 25 degrees C 9 days", "procedure": "Using a peach (variety “Yuzora”) fruit (6 fruits were used per group) as an agricultural product, the following experiment was performed.\n1) A fruit and 1-methylcyclopropene (concentration 1 ppm in a chamber) were placed into a sealed chamber, and contact-treated for 24 hours under a normal pressure.\n2) A fruit was placed into a sealed chamber, and a pressure in the chamber was reduced to 25.0 kPa. Subsequently, 1-methylcyclopropene was placed therein to the concentration in the chamber of 1 ppm, and contact-treated for 1 minute under the reduced pressure (25.0 kPa).\nThe fruit which had been subjected to treatment of the above-mentioned 1) or 2) was stored at 25 degrees C for 9 days, and hardness of flesh and was measured. In addition, contact treatment of the above-mentioned 1) or 2) was performed on the next day from harvesting of fruit. In addition, also regarding a fruit undergoing no treatment of 1) or 2) (non-treatment), similar storage was performed, and the above-mentioned index was measured. Further, regarding non-treated fruit, the above-mentioned index before storage was also measured."}, "[2]": {"system": "cut flower of a carnation (variety \"Rosybabara\")", "assay": "Withering of carnation cut flower after storage, Example 10", "assay_type": "in vivo", "conditions": "1 ppm, after storage 20 degrees C 14 days, average score of 5 plants (0=healthy)", "procedure": "Using a cut flower (5 ornamental plants were used per group) of a carnation (variety “Rosybabara”) as an agricultural product, the following experiment was performed. […]\n2) An ornamental plant was placed into a sealed chamber, and a pressure in the chamber was reduced to 12.5 kPa. Subsequently, 1-methylcyclopropene was placed therein to the concentration in the chamber of 1 ppm, and contact-treated for 1 minute under the reduced pressure (12.5 kPa).\n3) An ornamental plant was placed in a sealed chamber. Subsequently, a pressure in the chamber was reduced to 12.5 kPa and the ornamental plant was kept in the chamber under the reduced pressure for 1 minute.\nAn ornamental plant which had been subjected to treatment of the above-mentioned 1), 2) or 3) was stored at 20 degrees C for 14days, and an extent of withering of an ornamental plant was assessed by naked eyes. Assessment criteria were 4 stages; 0=healthy, 1=slight withering, 2=intermediate withering, […], and an average of assessment in 5 ornamental plants was calculated. Note that the treatment above-mentioned 1), 2) or 3) was performed on a day of harvesting an ornamental plant. In addition, also regarding an ornamental plant undergoing no treatment of 1), 2) or 3) (non-treatment), the similar storage was performed, and the above-mentioned index was measured."}}}
{"smiles": "CC1=CC1", "note": "[1-MCP, 1-methylcyclopropene]", "values": [{"measurement": "Hardness of flesh", "setting": "[1]; Normal pressure 24 hours", "value": 4.38, "unit": "N"}, {"measurement": "Hardness of flesh", "setting": "[1]; Reduced pressure (25.0 kPa) 1 minute", "value": 4.24, "unit": "N"}, {"measurement": "Extent of withering", "setting": "[2]; Normal pressure 1 hour", "value": 0.8}, {"measurement": "Extent of withering", "setting": "[2]; Normal pressure 24 hours", "value": 0.4}, {"measurement": "Extent of withering", "setting": "[2]; Reduced pressure (12.5 kPa) 1 minute", "value": 0.4}]}
